In paper PMC11017246, “Discovery of GLPG2737, a Potent Type 2 Corrector of CFTR for the Treatment of Cystic Fibrosis in Combination with a Potentiator and a Type 1 Co-corrector” (Journal of Medicinal Chemistry, 2024):

Tests used:
CYP2C9 = target: T1, CYP2C9 (Homo sapiens, UniProt P11712); experiment: CYP reversible inhibition in HLM, CYP2C9; format: in vitro ADME; settings: probe diclofenac; read-out: CYP inhibition in HLM IC50, CYP2C9
T1 construct: tissue BD Gentest; host or cells: human liver microsomes
Procedure: Test compounds were diluted in methanol and then added to mixture containing 50 mM potassium phosphate buffer, pH 7.4, human liver microsomes (BD Gentest) and probe substrate. After prewarming for 5 min at 37 °C, the reaction was started by adding cofactor mix (7.65 mg/mL glucose-6-phosphate, 1.7 mg/mL NADP, 6 U/mL of glucose-6-phosphate dehydrogenase), resulting in seven final concentrations of test compounds in the range 0.14–100 μM (2% methanol). Isoform specific conditions regarding probe substrate and microsomal protein concentrations are available in Table 2. Final concentrations of cofactor mix components were as follows: 1.56 mg/mL glucose-6-phosphate, 0.34 mg/mL NADP, and 1.2 U/mL glucose-6-phosphate dehydrogenase. After incubation at 37 °C, the reaction was terminated with acetonitrile:methanol (2:1) solution with internal standard. Samples were centrifuged, and the supernatant fractions were analyzed by LC-MS/MS. The instrument responses (test compounds and internal standard peak areas) were referenced to those for solvent controls (assumed as 100%) in order to determine the percentage reduction in probe metabolism. Percent of control activity vs concentration plots were generated and fitted using GraphPad Prism software to generate IC50.

Caco-2 cells = experiment: Intestinal permeability on Caco-2 cells; format: in vitro ADME, human; settings: A to B, n = 1
Procedure: (§1) Caco-2 cells were obtained from the European Collection of Cell Cultures (ECACC) and used after a 21-day cell culture in 24-well Transwell plates. Test compounds and the references (vinblastine and propranolol) were prepared in protein-free Hanks’ balanced salt solution containing 25 mM HEPES (pH 7.4) at a concentration of 10 μM and added to either the apical or basolateral chambers of a Transwell plate assembly. Before the experiment, the integrity of the monolayer was checked by measuring the transepithelial resistance. Lucifer yellow (LY) was added to the donor buffer in all wells to assess the integrity of the cell layers by monitoring LY permeation. As LY cannot freely permeate lipophilic barriers, a high degree of LY transport indicates poor integrity of the cell layer. […] Concentrations of the compound in the samples were measured by LC–MS/MS. Apparent permeability (Papp) coefficients were calculated from the relationship: Papp = dQ/dt × 1/A × C0, where Papp is the apparent permeability coefficient (cm s^–1), dQ/dt is the amount of drug permeated per unit of time, A is the effective surface area of the artificial membrane exposed to the medium, and C0 is the initial drug concentration in the donor compartment. The efflux ratios, as an indication of active efflux from the apical cell surface, were calculated using the ratio of Papp(B → A)/Papp(A → B).

[1] = Intestinal permeability on Caco-2 cells; format: in vitro ADME, human; settings: human, Caco-2, pH 7.4; A to B, n = 1; read-out: Caco-2 PA2B
Procedure: as §1

(h)Sigma = experiment: Radioligand binding, (h)Sigma (Eurofins panel); set-up: species or system human; settings: read-out: IC50, inhibition of radioligand binding to (h)Sigma
[2] = MDCK-MDR1 permeability assay; format: in vitro ADME, canine; settings: dog, MDCK-MDR1, pH 7.4; A to B, n = 2; read-out: MDCK-MDR1 PA2B
Procedure: (§2) MDCKII-MDR1 cells were seeded on Millicell-24 cell culture insert plate assemblies at a final concentration of 0.12 × 10^6 cells/well. Cells were cultured in a CO2 incubator for 3–4 days prior to experiment start with media replacement 24 h post seeding. On the day of the experiment, cells were preincubated for 45 min with Dulbecco’s Phosphate Buffer saline (D-PBS, pH7.4), containing 1% of DMSO. Compounds were prepared in D-PBS, pH 7.4 and added to either the apical or basolateral chambers of the Millicell cell culture insert plates assembly at a final concentration of 10 μM with a final DMSO concentration of 1%. Lucifer Yellow was added to all donor buffer solutions in order to assess integrity of the cell monolayers by monitoring Lucifer Yellow permeation. […] After brief mixing and centrifugation, the supernatant was analyzed by LC-MS/MS. The apparent permeability coefficient (Papp) was calculated according to the following equation: Papp = (dQ/dT)(1/C0)(1/A), where dQ/dT = permeability rate; C0 = initial concentration in donor compartment; A = surface area of the cell monolayer (0.7 cm^2). […] The efflux ratio is calculated as Papp from B to A divided by Papp from A to B. Passive permeability (×10^–6 cm/s) is calculated by the formula: Papp from A to B × efflux ratio + 1/2.

MDCKII-MDR1 cells = experiment: MDCK-MDR1 permeability assay; format: in vitro ADME, canine; settings: A to B, n = 2
Procedure: as §2

T1 sequence (P11712 whole entry): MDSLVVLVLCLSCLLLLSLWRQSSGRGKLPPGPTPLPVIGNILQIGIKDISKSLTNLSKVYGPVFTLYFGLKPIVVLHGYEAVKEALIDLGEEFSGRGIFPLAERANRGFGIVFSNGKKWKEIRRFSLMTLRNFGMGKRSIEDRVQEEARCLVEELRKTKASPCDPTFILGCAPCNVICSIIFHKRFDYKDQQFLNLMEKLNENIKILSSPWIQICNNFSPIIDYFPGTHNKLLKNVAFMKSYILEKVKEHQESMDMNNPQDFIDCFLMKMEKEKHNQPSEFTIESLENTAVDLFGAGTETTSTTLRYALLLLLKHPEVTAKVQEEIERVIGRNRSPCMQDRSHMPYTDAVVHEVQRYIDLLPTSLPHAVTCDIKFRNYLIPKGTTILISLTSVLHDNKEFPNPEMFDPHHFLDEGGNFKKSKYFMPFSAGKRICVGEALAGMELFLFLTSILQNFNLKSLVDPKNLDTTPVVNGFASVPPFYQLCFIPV

- IC50 (CYP2C9): 1400 nM
- Caco-2 PA2B (Caco-2 cells): 24.5 cm × 10^–6 s^–1
- Papp A→B at 1 h, 10 μM [1]: 24.5 ×10⁻⁶ cm/s
- IC50 ((h)Sigma): 360 nM
- Papp A→B at 1 h, 10 μM [2]: 5.45 ×10⁻⁶ cm/s
- MDCK-MDR1 PA2B (MDCKII-MDR1 cells): 5.45 cm × 10^–6 s^–1
SMILES: COC1CCN(C2CCN(c3cc(C(=O)NS(=O)(=O)N(C)C)nc4c3c(C3CCC3)nn4-c3ccc(F)cc3)CC2)CC1 [Compound 52, 3-Cyclobutyl-N-(N,N-dimethylsulfamoyl)-1-(4-fluorophenyl)-4-(4-methoxy-[1,4′-bipiperidin]-1′-yl)-1H-pyrazolo[3,4-b]pyridine-6-carboxamide]
